Assay results published in publication PMC4804716 (The FEBS journal, 2015).
Substitutions are numbered along the chain they refer to. Read-outs that look alike come from different tables or passages of the source.

How the values were obtained:
[1] = target: T1, Schistosoma mansoni thioredoxin glutathione reductase (SmTGR) (Schistosoma mansoni, UniProt Q962Y6)
T1 sequence (Q962Y6 1-598): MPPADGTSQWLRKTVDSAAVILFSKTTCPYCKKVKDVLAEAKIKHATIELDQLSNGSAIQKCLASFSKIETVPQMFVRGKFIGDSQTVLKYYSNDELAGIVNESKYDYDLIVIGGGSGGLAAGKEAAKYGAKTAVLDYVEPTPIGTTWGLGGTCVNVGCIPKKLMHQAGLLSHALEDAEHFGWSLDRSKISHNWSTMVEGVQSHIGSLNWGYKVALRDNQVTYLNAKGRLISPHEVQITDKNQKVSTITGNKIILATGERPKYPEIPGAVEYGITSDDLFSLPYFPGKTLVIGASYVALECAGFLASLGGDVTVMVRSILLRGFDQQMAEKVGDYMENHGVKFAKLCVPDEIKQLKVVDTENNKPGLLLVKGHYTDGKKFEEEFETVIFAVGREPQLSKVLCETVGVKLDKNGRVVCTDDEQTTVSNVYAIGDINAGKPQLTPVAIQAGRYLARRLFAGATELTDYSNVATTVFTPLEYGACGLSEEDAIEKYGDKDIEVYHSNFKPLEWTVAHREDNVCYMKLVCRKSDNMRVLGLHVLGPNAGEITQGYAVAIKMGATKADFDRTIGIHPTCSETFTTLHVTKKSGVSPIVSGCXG

Placenta wild type hTrxR [2] = target: T2, Placenta wild type hTrxR (Homo sapiens, UniProt Q16881); assay: hTrxR DTNB assay; format: biochemical
T2 sequence (Q16881 1-499 isoform Q16881-5): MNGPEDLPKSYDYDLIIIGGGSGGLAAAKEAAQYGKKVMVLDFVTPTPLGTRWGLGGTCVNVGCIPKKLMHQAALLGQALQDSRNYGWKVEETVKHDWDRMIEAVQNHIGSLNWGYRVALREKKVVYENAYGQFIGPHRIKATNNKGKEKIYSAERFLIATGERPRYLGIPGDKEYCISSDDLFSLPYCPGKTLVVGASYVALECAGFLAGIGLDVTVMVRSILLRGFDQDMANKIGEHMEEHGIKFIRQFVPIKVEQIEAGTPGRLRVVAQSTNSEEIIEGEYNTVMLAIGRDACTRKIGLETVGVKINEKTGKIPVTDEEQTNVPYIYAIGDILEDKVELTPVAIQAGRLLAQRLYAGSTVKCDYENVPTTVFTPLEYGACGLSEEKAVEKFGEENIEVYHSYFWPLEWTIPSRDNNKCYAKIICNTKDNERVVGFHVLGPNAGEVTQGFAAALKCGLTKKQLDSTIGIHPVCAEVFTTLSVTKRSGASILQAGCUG

[3] = target: T3, human glutathione reductase (hGR) (Homo sapiens, UniProt P00390); assay: hGR assay; format: biochemical
T3 sequence (P00390 1-479 isoform P00390-2): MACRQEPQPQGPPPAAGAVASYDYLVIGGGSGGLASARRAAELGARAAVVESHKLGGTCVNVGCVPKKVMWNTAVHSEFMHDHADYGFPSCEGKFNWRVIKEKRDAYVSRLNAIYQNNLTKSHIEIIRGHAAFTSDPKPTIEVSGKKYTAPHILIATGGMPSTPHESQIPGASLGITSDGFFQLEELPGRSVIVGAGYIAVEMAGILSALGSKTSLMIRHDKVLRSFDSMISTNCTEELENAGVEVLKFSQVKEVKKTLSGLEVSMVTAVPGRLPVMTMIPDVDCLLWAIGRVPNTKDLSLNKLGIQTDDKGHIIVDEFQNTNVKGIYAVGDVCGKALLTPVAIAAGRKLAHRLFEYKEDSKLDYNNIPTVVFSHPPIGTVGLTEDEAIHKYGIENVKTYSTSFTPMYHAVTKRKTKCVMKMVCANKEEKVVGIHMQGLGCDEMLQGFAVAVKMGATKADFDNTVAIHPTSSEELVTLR

[4] = Cyclic voltammetry of menadione derivatives; format: physicochemical; details: for Epa1 / Epc2 / Ipc1/Ipa1 / E^1½ / ΔEp (first wave): DMSO; for Epa1 / Epc2: 0.1 M n-Bu4NPF6, v = 200 mV s^−1, reference KCl(3 M)/Ag/AgCl; for Epa1 / Ipc1/Ipa1 / E^1½: first wave; for Epc2 / E^2½ / Epa2 / Ipc2/Ipa2 / ΔEp (second wave): second wave; for Ipc1/Ipa1 / ΔEp (first wave): 0.1 M n-Bu4NPF6, v = 200 mV s^−1; for E^1½ / E^2½: E½ = (Epc+Epa)/2; for E^1½: 0.1 M n-Bu4NPF6, reference KCl(3 M)/Ag/AgCl; for E^2½ / Epa2 / Ipc2/Ipa2 / ΔEp (second wave): irr: irreversible reduction; for ΔEp (first wave) / ΔEp (second wave): ΔE = Epa-Epc; for ΔE½: ΔE½ = E^1½-E^2½
Placenta wild type hTrxR [5] = target: T2, Placenta wild type hTrxR; assay: hTrxR Trx assay; format: biochemical; details: for IC50: IC50 hTrxR, text summary spanning the Trx assay and the DTNB assay; for IC50 fold higher for hTrxR than for SmTGR: selectivity hTrxR versus SmTGR
Sec498Cys TrxR = target: T4, Sec498Cys TrxR (Homo sapiens, UniProt Q16881); assay: hTrxR mutant DTNB assay; format: biochemical
T4 sequence (Q16881 with tags, fused parts or gaps isoform Q16881-5): T2 sequence (Q16881 1-499 isoform Q16881-5) with U498C

[6] = target: T1, Schistosoma mansoni thioredoxin glutathione reductase (SmTGR); assay: SmTGR DTNB assay; format: biochemical
S. mansoni worms = assay: Antischistosomal activity against adult, ex vivo worms; format: cell-based, Schistosoma mansoni; details: for antischistosomal activity against cultured ex vivo worms: 50 μM compound alone
[7] = Cytotoxicity against human MRC-5 cells; format: cell-based; details: human lung MRC-5 fibroblasts (MRC-5SV2 cells)
[8] = Glutathionylation reaction kinetics; format: physicochemical; details: pH 7.5
[9] = 50 μM with hemoglobin 10 μM, 22h incubation

Compound | IC50 (Placenta wild type hTrxR [2]) | IC50 [3] | Epa1 [4] | Epc2 [4] | Ipc1/Ipa1 [4] | E^1½ [4] | E^2½ [4] | Epa2 [4] | Ipc2/Ipa2 [4] | ΔEp (first wave) [4] | IC50 (Placenta wild type hTrxR [5]) | IC50 (Sec498Cys TrxR) | IC50 [6] | antischistosomal activity against cultured ex vivo worms (S. mansoni worms) | ΔEp (second wave) [4] | further results
COc1ccc(OCC2=C(C)C(=O)c3ccccc3C2=O)cc1C(F)(F)F [Compound 7, 2-((4-Methoxy-3-(trifluoromethyl)phenoxy)methyl)-3-methylnaphthalene-1,4-dione] | 1500 nM | 12000 nM | −0.506 V | −1.132 V | 2.92 | −0.563 V | −1.126 V | −1.120 V | 1.75 | 114 mV | 800 to 1500 nM | > 50000 nM | 200 nM | active |  | second order rate constant ki/KI [1]: 1180 M⁻¹ s⁻¹; ΔE½ [4]: 563 mV; IC50 fold higher for hTrxR than for SmTGR (Placenta wild type hTrxR [5]): around 5 fold; survival rates in the presence versus absence of RBCs after 24 hours (S. mansoni worms; 50 μM, human red blood cells 10 μl/well, 24 hours): identical; dead parasites in the absence versus presence of RBCs after 48 hours (S. mansoni worms; 50 μM, human red blood cells 10 μl/well, 48 hours): more parasites were dead in the absence of RBCs than in the presence of RBCs
N#Cc1ccc(OCC2=C(C(F)F)C(=O)c3ccccc3C2=O)cc1 [Compound 8, 4-((3-(Difluoromethyl)-1,4-dioxo-1,4-dihydronaphthalen-2-yl)methoxy)benzonitrile] | 14 nM | 2100 nM | −0.244 V |  | 3.31 | −0.329 V |  |  |  | 170 mV | 13 to 14 nM | 370 nM | 144 nM | inactive |  | IC50 at 3 days [7]: 6700 nM; decrease of the k2 values compared to the difluoromenadione itself [8]: ~10 fold; killing of worms whether RBCs were present or not (S. mansoni worms; 50 μM, with or without human red blood cells (10 μl/well)): no effect on killing the worms
CC1=C(COc2ccc(Br)cc2)C(=O)c2ccccc2C1=O [Compound 5, 2-((4-Bromophenoxy)methyl)-3-methylnaphthalene-1,4-dione] | 800 nM | > 5000 nM |  | −1.158 V | 1.89 |  | irr | irr | irr | 119 mV | 800 nM | > 100000 nM | 784 nM |  | irr | 
CC1=C(COc2ccc(Cl)cc2)C(=O)c2ccccc2C1=O [Compound 4, 2-((4-Chlorophenoxy)methyl)-3-methylnaphthalene-1,4-dione] | 700 nM | 5500 nM |  |  |  |  |  |  |  |  | 700 nM | > 100000 nM | 457 nM |  |  | 
CC1=C(COc2ccc(C#N)cc2)C(=O)c2ccccc2C1=O [Compound 2, 4-((3-Methyl-1,4-dioxo-1,4-dihydronaphthalen-2-yl)methoxy)benzonitrile] | 1200 nM | 8500 nM | −0.492 V | −1.154 V | 2.29 | −0.556 V | −1.127 V | −1.100 V | 2 | 128 mV | 1200 to 1500 nM | 6000 nM | 462 nM | (moderately) active | 54 mV | ΔE½ [4]: 571 mV; female worms killed (S. mansoni worms; [9]): 100%; male worms killed (S. mansoni worms; [9]): 50%
COc1c(F)cc(OCC2=C(C)C(=O)c3ccccc3C2=O)cc1F [Compound 3, 2-((3,5-Difluoro-4-methoxyphenoxy)methyl)-3-methylnaphthalene-1,4-dione] | 2000 nM | > 25000 nM |  |  |  |  |  |  |  |  | 2000 nM | > 100000 nM | 407 nM | most potent |  | 
CC1=C(COc2cccc(C(F)(F)F)c2)C(=O)c2ccccc2C1=O [Compound 6, 2-Methyl-3-((3-(trifluoromethyl)phenoxy)methyl)naphthalene-1,4-dione] | 1500 nM | 600 nM |  |  |  |  |  |  |  |  | 1500 to 3000 nM | > 50000 nM | 166 nM | inactive |  | IC50 fold higher for hTrxR than for SmTGR (Placenta wild type hTrxR [5]): around 10 fold
CC1=C(COc2ccc(C(=O)O)cc2)C(=O)c2ccccc2C1=O [Compound 1, 4-((3-Methyl-1,4-dioxo-1,4-dihydronaphthalen-2-yl)methoxy)benzoic acid] | 3000 nM | 2300 nM | −0.532 V | −1.265 V | 1.27 | −0.580 V | irr | irr | irr | 96 mV | 2000 to 3000 nM | 40000 nM | 482 nM | able to kill cultured adult worms | irr | IC50 at 3 days [7]: 6550 nM
O.O.O.O=C([O-])[C@H]([O-])[C@@H]([O-])C(=O)[O-].O=C([O-])[C@H]([O-])[C@@H]([O-])C(=O)[O-].[K+].[K+].[Sb+3].[Sb+3] [PAT, potassium antimonyl tartrate, reference compound] |  |  |  |  |  |  |  |  |  |  |  |  |  |  |  | IC50 ([6]; read-out: IC50 SmTGR assay, pH 7, 25°C, 100 μM NADPH, 3 mM DTNB): 173 nM; dead worms (S. mansoni worms; drug reference, after two days): 100%
